Activity calls are given as the source filed them. No cut-off for these calls is given here.
Assays:
A549 [1] = assay: Drug uptake in human A549 cells at 1 to 4 uM by confocal laser-scanning microscopy; assay type: ADME, cell-based; conditions: a549, 4 µM
A549 [2] = assay: Drug uptake in human A549 cells after 24 hrs by confocal laser-scanning microscopy; assay type: ADME, cell-based; conditions: a549, 24 h
A549 [3] = assay: Drug uptake in human A549 cells assessed as increase in fluorescence intensity at 1 uM after 2 hrs by fluorescence analysis using fluorescein labelled compound relative to oligonucleotide treated control; assay type: ADME, cell-based; conditions: a549, 2 h
A549 [4] = assay: Drug uptake in human A549 cells assessed as increase in fluorescence intensity at 1 uM after 8 hrs by fluorescence analysis using fluorescein labelled compound relative to oligonucleotide treated control; assay type: ADME, cell-based; conditions: a549, 8 h
A549 [5] = assay: Drug uptake in human A549 cells assessed as increase in fluorescence intensity at 1 uM after 24 hrs by fluorescence analysis using fluorescein labelled compound relative to oligonucleotide treated control; assay type: ADME, cell-based; conditions: a549, 24 h
A549 [6] = assay: Antisense activity in human A549 cells assessed as down regulation of p53 protein at 1 uM incubated for 8 hrs in serum-free medium followed by 24 hrs incubation in serum-containing medium by Western blotting analysis; assay type: functional, cell-based
A549 [7] = assay: Antisense activity in human A549 cells assessed as down regulation of p53 protein at 5 uM incubated for 8 hrs in serum-free medium followed by 24 hrs incubation in serum-containing medium by Western blotting analysis; assay type: functional
A549 [8] = assay: Cytotoxicity against human A549 cells assessed as cytoplasmic LDH release at 5 uM after 2 to 24 hrs by spectrophotometry; assay type: cell-based; conditions: a549, 5 µM
A549 [9] = assay: Drug uptake in human A549 cells assessed as increase in fluorescence intensity at 1 uM after 24 hrs by fluorescence analysis relative to control; assay type: ADME, cell-based; conditions: a549, 24 h

Compound | Drug uptake (A549 [1]) | Drug uptake (A549 [2]) | fold change (FC) (A549 [3]) | fold change (FC) (A549 [4]) | fold change (FC) (A549 [5]) | Activity (A549 [6]) | Drug uptake (A549 [1]; TDE = time-dependent effect) | Activity (A549 [7]) | Activity (A549 [8]) | Drug uptake (A549 [9])
Nc1ccn([C@H]2C[C@H](OP(O)(=S)OC[C@H]3O[C@@H](n4cnc5c(N)ncnc54)C[C@@H]3OP(O)(=S)OC[C@H]3O[C@@H](n4cnc5c(=O)[nH]c(N)nc54)C[C@@H]3OP(O)(=S)OC[C@H]3O[C@@H](n4cnc5c(=O)[nH]c(N)nc54)C[C@@H]3OP(O)(=S)OC[C@H]3O[C@@H](n4cnc5c(=O)[nH]c(N)nc54)C[C@@H]3OP(O)(=S)OC[C@H]3O[C@@H](n4cnc5c(=O)[nH]c(N)nc54)C[C@@H]3OP(O)(=S)OC[C@H]3O[C@@H](n4cnc5c(=O)[nH]c(N)nc54)C[C@@H]3OP(O)(=S)OC[C@H]3O[C@@H](n4cnc5c(=O)[nH]c(N)nc54)C[C@@H]3OP(O)(=S)OC[C@H]3O[C@@H](n4cnc5c(N)ncnc54)C[C@@H]3OP(O)(=S)OC[C@H]3O[C@@H](n4cnc5c(=O)[nH]c(N)nc54)C[C@@H]3OP(O)(=S)OC[C@H]3O[C@@H](n4ccc(N)nc4=O)C[C@@H]3OP(O)(=S)OC[C@H]3O[C@@H](n4cnc5c(N)ncnc54)C[C@@H]3OP(O)(=S)OC[C@H]3O[C@@H](n4cnc5c(=O)[nH]c(N)nc54)C[C@@H]3OP(O)(=S)OC[C@H]3O[C@@H](n4cnc5c(=O)[nH]c(N)nc54)C[C@@H]3OP(O)(=S)OC[C@H]3O[C@@H](n4cnc5c(=O)[nH]c(N)nc54)C[C@@H]3O)[C@@H](COP(O)(=S)O[C@H]3C[C@H](n4ccc(N)nc4=O)O[C@@H]3COP(O)(=S)O[C@H]3C[C@H](n4cnc5c(=O)[nH]c(N)nc54)O[C@@H]3COP(O)(=S)O[C@H]3C[C@H](n4cnc5c(N)ncnc54)O[C@@H]3COP(O)(=S)O[C@H]3C[C@H](n4cnc5c(=O)[nH]c(N)nc54)O[C@@H]3COP(O)(=S)O[C@H]3C[C@H](n4cnc5c(=O)[nH]c(N)nc54)O[C@@H]3CO)O2)c(=O)n1 (some centres undefined) | Not Active | Not Active |  |  |  |  |  |  |  | 
CC[C@H](C)[C@H](NC(=O)[C@H](CC(N)=O)NC(=O)C(C)(C)NC(C)=O)C(=O)N[C@H](C(=O)NC(C)(C)C(=O)N1CCC[C@H]1C(=O)N[C@@H](CC(C)C)C(=O)N[C@@H](CC(C)C)C(=O)NC(C)(C)C(=O)N1CCC[C@H]1C(=O)N[C@H](C(=O)N[C@@H](CSC1CC(=O)N(CCCCCC(=O)NCCCCCCOP(=O)(O)OC[C@H]2O[C@@H](n3ccc(N)nc3=O)C[C@@H]2OP(O)(=S)OC[C@H]2O[C@@H](n3ccc(N)nc3=O)C[C@@H]2OP(O)(=S)OC[C@H]2O[C@@H](n3ccc(N)nc3=O)C[C@@H]2OP(O)(=S)OC[C@H]2O[C@@H](n3cc(C)c(=O)[nH]c3=O)C[C@@H]2OP(O)(=S)OC[C@H]2O[C@@H](n3cnc4c(=O)[nH]c(N)nc43)C[C@@H]2OP(O)(=S)OC[C@H]2O[C@@H](n3ccc(N)nc3=O)C[C@@H]2OP(O)(=S)OC[C@H]2O[C@@H](n3cc(C)c(=O)[nH]c3=O)C[C@@H]2OP(O)(=S)OC[C@H]2O[C@@H](n3ccc(N)nc3=O)C[C@@H]2OP(O)(=S)OC[C@H]2O[C@@H](n3ccc(N)nc3=O)C[C@@H]2OP(O)(=S)OC[C@H]2O[C@@H](n3ccc(N)nc3=O)C[C@@H]2OP(O)(=S)OC[C@H]2O[C@@H](n3ccc(N)nc3=O)C[C@@H]2OP(O)(=S)OC[C@H]2O[C@@H](n3ccc(N)nc3=O)C[C@@H]2OP(O)(=S)OC[C@H]2O[C@@H](n3ccc(N)nc3=O)C[C@@H]2OP(O)(=S)OC[C@H]2O[C@@H](n3cc(C)c(=O)[nH]c3=O)C[C@@H]2OP(O)(=S)OC[C@H]2O[C@@H](n3cnc4c(=O)[nH]c(N)nc43)C[C@@H]2OP(O)(=S)OC[C@H]2O[C@@H](n3cnc4c(=O)[nH]c(N)nc43)C[C@@H]2OP(O)(=S)OC[C@H]2O[C@@H](n3ccc(N)nc3=O)C[C@@H]2OP(O)(=S)OC[C@H]2O[C@@H](n3cc(C)c(=O)[nH]c3=O)C[C@@H]2OP(O)(=S)OC[C@H]2O[C@@H](n3ccc(N)nc3=O)C[C@@H]2OP(O)(=S)OC[C@H]2O[C@@H](n3ccc(N)nc3=O)C[C@@H]2O)C1=O)C(N)=O)[C@@H](C)CC)[C@@H](C)CC (some centres undefined) |  | Dose-dependent effect | 4 | 7 | 14 | inactive | tde | 50% | Non-toxic | 
CC[C@H](C)[C@H](NC(=O)[C@H](CC(N)=O)NC(=O)C(C)(C)NC(C)=O)C(=O)N[C@H](C(=O)NC(C)(C)C(=O)N1CCC[C@H]1C(=O)N[C@@H](CC(C)C)C(=O)N[C@@H](CC(C)C)C(=O)NC(C)(C)C(=O)N1CCC[C@H]1C(=O)N[C@H](C(=O)N[C@@H](CSC1CC(=O)N(CCCCCC(=O)NCCCCCCOP(=O)(O)OC[C@H]2O[C@@H](n3cnc4c(=O)[nH]c(N)nc43)C[C@@H]2OP(O)(=S)OC[C@H]2O[C@@H](n3cnc4c(=O)[nH]c(N)nc43)C[C@@H]2OP(O)(=S)OC[C@H]2O[C@@H](n3cnc4c(N)ncnc43)C[C@@H]2OP(O)(=S)OC[C@H]2O[C@@H](n3cnc4c(=O)[nH]c(N)nc43)C[C@@H]2OP(O)(=S)OC[C@H]2O[C@@H](n3ccc(N)nc3=O)C[C@@H]2OP(O)(=S)OC[C@H]2O[C@@H](n3ccc(N)nc3=O)C[C@@H]2OP(O)(=S)OC[C@H]2O[C@@H](n3cnc4c(N)ncnc43)C[C@@H]2OP(O)(=S)OC[C@H]2O[C@@H](n3cnc4c(=O)[nH]c(N)nc43)C[C@@H]2OP(O)(=S)OC[C@H]2O[C@@H](n3cnc4c(=O)[nH]c(N)nc43)C[C@@H]2OP(O)(=S)OC[C@H]2O[C@@H](n3cnc4c(=O)[nH]c(N)nc43)C[C@@H]2OP(O)(=S)OC[C@H]2O[C@@H](n3cnc4c(=O)[nH]c(N)nc43)C[C@@H]2OP(O)(=S)OC[C@H]2O[C@@H](n3cnc4c(=O)[nH]c(N)nc43)C[C@@H]2OP(O)(=S)OC[C@H]2O[C@@H](n3cnc4c(=O)[nH]c(N)nc43)C[C@@H]2OP(O)(=S)OC[C@H]2O[C@@H](n3cnc4c(N)ncnc43)C[C@@H]2OP(O)(=S)OC[C@H]2O[C@@H](n3cnc4c(=O)[nH]c(N)nc43)C[C@@H]2OP(O)(=S)OC[C@H]2O[C@@H](n3ccc(N)nc3=O)C[C@@H]2OP(O)(=S)OC[C@H]2O[C@@H](n3cnc4c(N)ncnc43)C[C@@H]2OP(O)(=S)OC[C@H]2O[C@@H](n3cnc4c(=O)[nH]c(N)nc43)C[C@@H]2OP(O)(=S)OC[C@H]2O[C@@H](n3cnc4c(=O)[nH]c(N)nc43)C[C@@H]2OP(O)(=S)OC[C@H]2O[C@@H](n3cnc4c(=O)[nH]c(N)nc43)C[C@@H]2O)C1=O)C(N)=O)[C@@H](C)CC)[C@@H](C)CC (some centres undefined) |  |  |  |  |  |  |  |  |  | Not Active
CC[C@H](C)[C@H](NC(=O)[C@H](CC(N)=O)NC(=O)C(C)(C)NC(C)=O)C(=O)N[C@H](C(=O)NC(C)(C)C(=O)N1CCC[C@H]1C(=O)N[C@@H](CC(C)C)C(=O)N[C@@H](CC(C)C)C(=O)NC(C)(C)C(=O)N1CCC[C@H]1C(=O)N[C@H](C(=O)N[C@@H](CSSCCCCCCOP(=O)(O)OC[C@H]1O[C@@H](n2ccc(N)nc2=O)C[C@@H]1OP(O)(=S)OC[C@H]1O[C@@H](n2ccc(N)nc2=O)C[C@@H]1OP(O)(=S)OC[C@H]1O[C@@H](n2ccc(N)nc2=O)C[C@@H]1OP(O)(=S)OC[C@H]1O[C@@H](n2cc(C)c(=O)[nH]c2=O)C[C@@H]1OP(O)(=S)OC[C@H]1O[C@@H](n2cnc3c(=O)[nH]c(N)nc32)C[C@@H]1OP(O)(=S)OC[C@H]1O[C@@H](n2ccc(N)nc2=O)C[C@@H]1OP(O)(=S)OC[C@H]1O[C@@H](n2cc(C)c(=O)[nH]c2=O)C[C@@H]1OP(O)(=S)OC[C@H]1O[C@@H](n2ccc(N)nc2=O)C[C@@H]1OP(O)(=S)OC[C@H]1O[C@@H](n2ccc(N)nc2=O)C[C@@H]1OP(O)(=S)OC[C@H]1O[C@@H](n2ccc(N)nc2=O)C[C@@H]1OP(O)(=S)OC[C@H]1O[C@@H](n2ccc(N)nc2=O)C[C@@H]1OP(O)(=S)OC[C@H]1O[C@@H](n2ccc(N)nc2=O)C[C@@H]1OP(O)(=S)OC[C@H]1O[C@@H](n2ccc(N)nc2=O)C[C@@H]1OP(O)(=S)OC[C@H]1O[C@@H](n2cc(C)c(=O)[nH]c2=O)C[C@@H]1OP(O)(=S)OC[C@H]1O[C@@H](n2cnc3c(=O)[nH]c(N)nc32)C[C@@H]1OP(O)(=S)OC[C@H]1O[C@@H](n2cnc3c(=O)[nH]c(N)nc32)C[C@@H]1OP(O)(=S)OC[C@H]1O[C@@H](n2ccc(N)nc2=O)C[C@@H]1OP(O)(=S)OC[C@H]1O[C@@H](n2cc(C)c(=O)[nH]c2=O)C[C@@H]1OP(O)(=S)OC[C@H]1O[C@@H](n2ccc(N)nc2=O)C[C@@H]1OP(O)(=S)OC[C@H]1O[C@@H](n2ccc(N)nc2=O)C[C@@H]1O)C(N)=O)[C@@H](C)CC)[C@@H](C)CC (some centres undefined) |  |  |  |  |  | inactive |  | 20% | Non-toxic | 
